Data: ChEMBL document CHEMBL1147324, “The isolation and structure of modified bioactive nucleosides from Jaspis johnstoni” (J Nat Prod, 1989)
In brackets after ≈: the same amount, converted by molar mass.

Experiments:
Candida albicans = test: Antifungal activity against Candida albicans at 1.25 mg/6.4 mm disk; type: functional
L1210 [1] = test: Cytotoxicity against mouse L1210 cells; type: functional, cell-based
L1210 [2] = test: Antitumor activity against mouse L1210 cells implanted in mouse assessed as increase in survival; type: functional

For `N#Cc1cn([C@@H]2O[C@H](CO)[C@@H](O)[C@H]2O)c2ncnc(N)c12` [TOYOCAMYCIN], the “inhibition zone (IZ)” value (Candida albicans) was 13 mm and the IC50 (L1210 [1]) was 0.0026 µg/mL (≈ 0.00893 µM).

For `COC(=O)c1cn([C@@H]2O[C@H](CO)[C@@H](O)[C@H]2O)c2ncnc(N)c12`, the IC50 (L1210 [1]) was 0.027 µg/mL (≈ 0.0833 µM) and the Activity (L1210 [2]) was 39%.
